Values quoted from earlier work in patent publication US20260098286A1, “Low Dose Psilocybin in Foodstuff and Microbes for Same” (ATX PHARMERS LLC, priority 2021, published 2026).

Experiments:
[1] = degrades in the presence of oxygen
[2] = tested on: human serotonin-related receptors
[3] = adults
[4] = weight per weight basis
[5] = not given; remark: listed apart in the source
[6] = in vivo

Structure (SMILES)	stability in solution [1]	number of human serotonin-related receptors bound [2]	blood plasma concentration at which psychological effects occur [3]	psilocin concentrations in the plasma (average) ([3]; within 2 hours after single 15 mg oral psilocybin dose)	detectability in the urine (after 7 days)	ingested psilocybin absorbed through the stomach and intestine (animal studies)	absorbed psilocybin excreted in the bile and feces (within 24 hours)	absorbed psilocybin excreted into the urine (within 24 hours)	potency relative to LSD (times less potent) [4]	effects begin after ingestion ([5]; after ingestion)	effects last ([5]; depending on dose, species, and individual metabolism)	half-life of psilocybin ([5]; taken orally)	toxicity [6]
CN(C)CCc1c[nH]c2cccc(O)c12 [psilocin]	relatively unstable	over 15	4-6 μg/liter	about 8 μg/liter	–	–	–	–	–	–	–	–	–
CN(C)CCc1c[nH]c2cccc(OP(=O)(O)O)c12 [psilocybin, 4-phosphoryloxy-N,N-dimethyltryptamine]	–	–	–	–	still detectable	about 50%	15-20%	about 65%	about 100 times	10 to 40 min	2 to 6 h	2.72 ± 1.07 h	low toxicity
